This assay deals with cancer cells. As to the kind of experiment: MTS assay: inhibition of cell growth (formazan absorbance at 492 nm after 72 hours with test compound). In kind it is cell-based. As to conditions: inhibition class. Here is the method: Cells were maintained at 37° C., 5% CO2 in DMEM media supplemented with 1% fetal bovine serum, penicillin/streptomycin and fungizone (Invitrogen). Cells were seeded into 96-well tissue culture plates at 3000 per well and cultured at 37° C. for 18 hours. Test compounds were dissolved and diluted to 300× in DMSO then diluted 1:40 in DMEM. Cells were incubated with test compounds for 72 hours followed by incubation with tetrazolium compound (3-(4,5-dimethylthiazol-2-yl)-5-(3-carboxymethoxyphenyl)-2-(4-sulfophenyl)-2H-tetrazolium, inner salt; MTS) and the electron coupling reagent, phenazine methosulfate (PMS) for 4 hours. […] The ability of compounds to inhibit cell growth in this assay is correlated with the reduction of dehydrogenase enzyme activity found in metabolically active cells. The measurement of the absorbance of the formazan was assessed using an ENVISION™ (Perkin Elmer) microplate reader at 492 nm. The calculated IC50 value is the concentration of the test compound that causes a 50% decrease in the absorbance. […] A=>79% inhibition, B=>50 to 79% inhibition, C=<50% inhibition.

Setting [1] is: Homo sapiens, DLD-1 cells, read-out: DLD-1, MTS 72 hours at 10 uM.
[2] abbreviates: Homo sapiens, KATO III cells, read-out: KATO III, MTS 72 hours at 10 uM.
Setting [3] is: Homo sapiens, MDA-MB-231 cells, read-out: MDA-MB-231, MTS 72 hours at 10 uM.
Where [4] appears, read: Homo sapiens, NCI-H1299 cells, read-out: NCI-H1299, MTS 72 hours at 10 uM.
[5] abbreviates: Homo sapiens, PC-3 cells, read-out: PC-3, MTS 72 hours at 10 uM.
[6] abbreviates: PACA-2 cells, read-out: PACA-2, MTS 72 hours at 10 uM.

Read-outs that look alike come from different tables or passages of the source. Where only a bound is given, the exact number is not on record here.

Consider `c1ccc(CN2CCc3n[nH]c4nc(NCCOc5ccccc5)nc2c34)cc1` [Compound 34, 6-benzyl-N-(2-phenoxyethyl)-2,6,7,8-tetrahydro-1,2,3,5,6-pentaazaacenaphthylen-4-amine], for which the inhibition at 10 µM is, setting by setting: under setting [1], under 50%; under setting [2], under 50%; under setting [3], 50 to 79%; under setting [4], under 50%; under setting [5], under 50%; under setting [6], 50 to 79%.

Consider `COc1ccc(CN2CCc3n[nH]c4nc(NCCc5c[nH]c6ccccc56)nc2c34)cc1` [Compound 104, N-[2-(1H-indol-3-yl)ethyl]-6-(4-methoxybenzyl)-2,6,7,8-tetrahydro-1,2,3,5,6-pentaazaacenaphthylen-4-amine], for which the inhibition at 10 µM reads like this: under setting [1], 50 to 79%; under setting [2], 50 to 79%; under setting [3], under 50%; under setting [4], 50 to 79%; under setting [5], under 50%; under setting [6], under 50%.

In the case of `CCOC(=O)N1CCN(c2nc3c4c(n[nH]c4n2)CCN3Cc2ccccc2)CC1` [Compound 89, ethyl 4-(6-benzyl-2,6,7,8-tetrahydro-1,2,3,5,6-pentaazaacenaphthylen-4-yl)piperazine-1-carboxylate], the inhibition at 10 µM is, setting by setting: under setting [1], under 50%; under setting [2], under 50%; under setting [3], over 79%; under setting [4], under 50%; under setting [5], over 79%; under setting [6], under 50%.

For `COC(=O)Cn1nc2c3c(nc(SC)nc31)N(Cc1ccccc1)CC2` [Compound 172, methyl [6-benzyl-4-(methylsulfanyl)-7,8-dihydro-1,2,3,5,6-pentaazaacenaphthylen-2(6H)-yl]acetate], the inhibition at 10 µM is 50 to 79% under setting [1]; under 50% under setting [2]; under 50% under setting [3]; under 50% under setting [4]; over 79% under setting [5]; over 79% under setting [6].

In the case of `COc1cccc(CNc2nc3c4c(n[nH]c4n2)CCN3Cc2ccccc2)c1` [Compound 93, 6-benzyl-N-(3-methoxybenzyl)-2,6,7,8-tetrahydro-1,2,3,5,6-pentaazaacenaphthylen-4-amine], the inhibition at 10 µM under setting [1] was under 50%; the inhibition at 10 µM under setting [2] was under 50%; the inhibition at 10 µM under setting [3] was under 50%; the inhibition at 10 µM under setting [4] was under 50%; the inhibition at 10 µM under setting [5] is under 50%; the inhibition at 10 µM under setting [6] was under 50%.

Consider `COc1ccc(CN2CCCc3n[nH]c4nc(NCc5cccnc5)nc2c34)cc1` [Compound 251, 6-(4-methoxybenzyl)-N-(pyridin-3-ylmethyl)-6,7,8,9-tetrahydro-2H-1,2,3,5,6-pentaazabenzo[cd]azulen-4-amine], for which the inhibition at 10 µM is over 79% under setting [1]; over 79% under setting [2]; over 79% under setting [3]; over 79% under setting [4]; over 79% under setting [5]; over 79% under setting [6].

As to `O=C(NCc1ccccc1)C1CN(Cc2ccccc2)c2nc(N3CCCCC3)nc3[nH]nc1c23` (stereo not drawn) [Compound 227, N,6-dibenzyl-4-piperidin-1-yl-2,6,7,8-tetrahydro-1,2,3,5,6-pentaazaacenaphthylene-8-carboxamide], the inhibition at 10 µM was over 79% under setting [1]; 50 to 79% under setting [2]; over 79% under setting [3]; over 79% under setting [4]; over 79% under setting [5]; under 50% under setting [6].

As to `c1ccc(N2CCc3n[nH]c4nc(NCCN5CCOCC5)nc2c34)cc1` [Compound 215, N-(2-morpholin-4-ylethyl)-6-phenyl-2,6,7,8-tetrahydro-1,2,3,5,6-pentaazaacenaphthylen-4-amine], the inhibition at 10 µM was under 50% under setting [1]; under 50% under setting [2]; under 50% under setting [3]; under 50% under setting [4]; under 50% under setting [5]; under 50% under setting [6].

Regarding `c1ccc(CN2CCc3n[nH]c4nc(NCc5cccc6ccccc56)nc2c34)cc1` [Compound 7, 6-benzyl-N-(1-naphthylmethyl)-2,6,7,8-tetrahydro-1,2,3,5,6-pentaazaacenaphthylen-4-amine], the inhibition at 10 µM was under 50% under setting [1]; over 79% under setting [2]; over 79% under setting [3]; under 50% under setting [4]; over 79% under setting [5]; under 50% under setting [6].

As for `Fc1ccc(CCNc2nc3c4c(n[nH]c4n2)CCN3c2ccccc2)cc1` [Compound 221, N-[2-(4-fluorophenyl)ethyl]-6-phenyl-2,6,7,8-tetrahydro-1,2,3,5,6-pentaazaacenaphthylen-4-amine], the inhibition at 10 µM is under 50% under setting [1]; under 50% under setting [2]; under 50% under setting [3]; under 50% under setting [4]; under 50% under setting [5]; under 50% under setting [6].

`c1ccc(CN2CCc3n[nH]c4nc(NCc5ccc6c(c5)CCO6)nc2c34)cc1` [Compound 63, 6-benzyl-N-(2,3-dihydro-1-benzofuran-5-ylmethyl)-2,6,7,8-tetrahydro-1,2,3,5,6-pentaazaacenaphthylen-4-amine]: the inhibition at 10 µM is under 50% under setting [1]; under 50% under setting [2]; under 50% under setting [3]; under 50% under setting [4]; under 50% under setting [5]; under 50% under setting [6].

Consider `CN(C)CCCNc1nc2c3c(n[nH]c3n1)C(C(=O)NCc1ccccc1)CN2Cc1ccccc1` (stereo not drawn) [Compound 223, N,6-dibenzyl-4-{[3-(dimethylamino)propyl]ami-no}-2,6,7,8-tetrahydro-1,2,3,5,6-pentaazaacenaphthylene-8-carboxamide], for which the inhibition at 10 µM is, setting by setting: under setting [1], under 50%; under setting [2], under 50%; under setting [3], under 50%; under setting [4], under 50%; under setting [5], under 50%; under setting [6], under 50%.

In the case of `COc1ccc(CN2CCc3n[nH]c4nc(NCCc5ccc(F)cc5)nc2c34)cc1` [Compound 109, N-[2-(4-fluorophenyl)ethyl]-6-(4-methoxybenzyl)-2,6,7,8-tetrahydro-1,2,3,5,6-pentaazaacenaphthylen-4-amine], the inhibition at 10 µM is, setting by setting: under setting [1], 50 to 79%; under setting [2], 50 to 79%; under setting [3], under 50%; under setting [4], 50 to 79%; under setting [5], under 50%; under setting [6], 50 to 79%.

On to `c1ccc(CNc2nc3c4c(n[nH]c4n2)CCN3)cc1` [Compound 101, N-benzyl-2,6,7,8-tetrahydro-1,2,3,5,6-pentaazaacenaphthylen-4-amine], for which the inhibition at 10 µM under setting [1] lay within 50 to 79%; the inhibition at 10 µM under setting [2] was under 50%; the inhibition at 10 µM under setting [3] is under 50%; the inhibition at 10 µM under setting [4] is under 50%; the inhibition at 10 µM under setting [5] lay in the range of 50 to 79%; the inhibition at 10 µM under setting [6] was over 79%.

For the origin of these results see patent US8343983B2, “Substituted pyrazolo-pyrimidine compounds” (ArQule, Inc., priority 2009, dated 2013).
